Results: patent publication US12624044B2, “SMARCA degraders and uses thereof” (Kymera Therapeutics, Inc., priority 2019, dated 2026)

Tests used:
Type in all cases: cell-based
SMARCA2 [1] = biological target: T1, SMARCA2 (Homo sapiens, UniProt P51531); assay: MSD SMARCA2 degradation in A549 cell line; settings: A549 cells, 24 h, read-out: SMARCA2 MSD A549 degradation 24 h: Average external-Abs DC50
How it was run: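 A549 cells treated 24 h with compound at final 0.152-1000 nM (3-fold series, DMSO control). Lysates analyzed by MSD immunoassay using anti-SMARCA2/BRM detection and SULFO-TAG secondary antibodies; maximal degradation (Dmax %) reported as letter bins.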

SMARCA4 = biological target: T2, SMARCA4 (Homo sapiens, UniProt P51532); assay: SMARCA4 Western blot MV4-11 degradation; settings: 24 h; for DC50: MV4-11 cells, read-out: SMARCA4 WB MV411 degradation 24 h: Average external-Abs DC50; for Dmax: MV4-11, MV4-11 cells, read-out: SMARCA4 WB MV411 degradation 24 h: Average Dmax %
T2 construct: SMARCA2 and SMARCA4 protein degradation in MV4-11 cells; endogenous in cells; host or cells: MV4-11
Description: Cells were seeded into 6-well plates (MV4-11: 4×10^6 cells/well/1 ml) and 1 ml of 2× compound solution was added into the well to make the final concentration and the plates were mixed well and incubated for 24 hours (No cytotoxicity was observed). The cell were collected with media and spun at 3000 rpm for 5 minutes. The supernatant was aspirated and the well and the cells were washed with cold PBS once and combined for centrifugation again; the supernatant aspirated again. 200 ul pre-chilled RIPAlysis buffer (Boston BioProducts BP-115D) with protease/phosphatase inhibitor (Roche 05892791001/Roche 04906837001) was directly added into the tube to lyze the cells for 20 minutes on ice. The cell lysate were collected into EP tubes and spun at 13000 rpm for 20 minutes and 72 ul supernatant was transferred to a fresh EP tube containing 18 ul of 5× loading buffer (Beyotime Bio P0015) to make the loading samples. The samples were heated to 100° C. for 10 minutes and cooled to RT and microcentrifuged. 20 ul of samples were loaded onto SDS-PAGE gel (Novex, WG1402BOX) and the gel was run at 80 V for 20 minutes and 120 V for 1.5 hours. The samples were electrotransfer to a NC membrane using wet-transfer method with 250 mA for 2.5 hours. The membrane was blocked with LICOR blocking buffer (LI-COR, 927-50000) for 1 hour. The membrane was washed three times with TBST (CST #9997S), 5 minutes each. Incubation was performed with primary antibody prepared in blocking buffer with 0.1% Tween-20 (Solarbio, P8220) at 4° C. overnight (Anti-SMARCA2/BRM antibody (ab15597) 1:500; Anti-BRG1 antibody [EPR3912] (ab108318) 1:1000; Rabbit anti-Baf180 antibody [EPR15860] (Abcam, ab196022) 1:1000; mouse anti-beta-Actin (8H10D10) (CST #3700) 1:10000). The membrane was washed three times with TBST, 5 minutes each. Incubation with secondary antibody was performed for 1 hour at RT (anti-rabbit IgG (Licor, 926-32211) 1:5000; anti-mouse IgG (LI-COR, 926-68070) 1:5000). The membrane was washed three times with TBST, 5 minutes each and lastly the LiCOR was read.
The letter codes for the percentage of SMARCA degradation after 24 hours (Dmax %) include: A (>90% degradation), B (>70-90% degradation), C (50-70% degradation), and D (<50% degradation).

SMARCA2 [2] = biological target: T1, SMARCA2; assay: MSD SMARCA2 degradation in NCI-H1299 cell line (24 h); design: HC: NCI-H1299 cells treated with DMSO; host or cells: NCI-H1299; settings: for Dmax: NCI-H1299, NCI-H1299 cells; for DC50: NCI-H1299 cells, read-out: SMARCA2 MSD H1299 degradation 24 h: External Abs-DC50
How it was run: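 NCI-H1299 cells treated 24 h with a 3-fold, 9-point compound dilution series, then lysed in RIPA with protease inhibitor. SMARCA2 in lysate-coated MSD plates detected with rabbit anti-SMARCA2 (0.3 ug/ml) and SULFO-TAG secondary. Relative SMARCA2 level normalized between DMSO-treated H1299 cells and SMARCA2-negative A2780 cells; Dmax % binned A–D.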

T2 sequence (P51532 whole entry): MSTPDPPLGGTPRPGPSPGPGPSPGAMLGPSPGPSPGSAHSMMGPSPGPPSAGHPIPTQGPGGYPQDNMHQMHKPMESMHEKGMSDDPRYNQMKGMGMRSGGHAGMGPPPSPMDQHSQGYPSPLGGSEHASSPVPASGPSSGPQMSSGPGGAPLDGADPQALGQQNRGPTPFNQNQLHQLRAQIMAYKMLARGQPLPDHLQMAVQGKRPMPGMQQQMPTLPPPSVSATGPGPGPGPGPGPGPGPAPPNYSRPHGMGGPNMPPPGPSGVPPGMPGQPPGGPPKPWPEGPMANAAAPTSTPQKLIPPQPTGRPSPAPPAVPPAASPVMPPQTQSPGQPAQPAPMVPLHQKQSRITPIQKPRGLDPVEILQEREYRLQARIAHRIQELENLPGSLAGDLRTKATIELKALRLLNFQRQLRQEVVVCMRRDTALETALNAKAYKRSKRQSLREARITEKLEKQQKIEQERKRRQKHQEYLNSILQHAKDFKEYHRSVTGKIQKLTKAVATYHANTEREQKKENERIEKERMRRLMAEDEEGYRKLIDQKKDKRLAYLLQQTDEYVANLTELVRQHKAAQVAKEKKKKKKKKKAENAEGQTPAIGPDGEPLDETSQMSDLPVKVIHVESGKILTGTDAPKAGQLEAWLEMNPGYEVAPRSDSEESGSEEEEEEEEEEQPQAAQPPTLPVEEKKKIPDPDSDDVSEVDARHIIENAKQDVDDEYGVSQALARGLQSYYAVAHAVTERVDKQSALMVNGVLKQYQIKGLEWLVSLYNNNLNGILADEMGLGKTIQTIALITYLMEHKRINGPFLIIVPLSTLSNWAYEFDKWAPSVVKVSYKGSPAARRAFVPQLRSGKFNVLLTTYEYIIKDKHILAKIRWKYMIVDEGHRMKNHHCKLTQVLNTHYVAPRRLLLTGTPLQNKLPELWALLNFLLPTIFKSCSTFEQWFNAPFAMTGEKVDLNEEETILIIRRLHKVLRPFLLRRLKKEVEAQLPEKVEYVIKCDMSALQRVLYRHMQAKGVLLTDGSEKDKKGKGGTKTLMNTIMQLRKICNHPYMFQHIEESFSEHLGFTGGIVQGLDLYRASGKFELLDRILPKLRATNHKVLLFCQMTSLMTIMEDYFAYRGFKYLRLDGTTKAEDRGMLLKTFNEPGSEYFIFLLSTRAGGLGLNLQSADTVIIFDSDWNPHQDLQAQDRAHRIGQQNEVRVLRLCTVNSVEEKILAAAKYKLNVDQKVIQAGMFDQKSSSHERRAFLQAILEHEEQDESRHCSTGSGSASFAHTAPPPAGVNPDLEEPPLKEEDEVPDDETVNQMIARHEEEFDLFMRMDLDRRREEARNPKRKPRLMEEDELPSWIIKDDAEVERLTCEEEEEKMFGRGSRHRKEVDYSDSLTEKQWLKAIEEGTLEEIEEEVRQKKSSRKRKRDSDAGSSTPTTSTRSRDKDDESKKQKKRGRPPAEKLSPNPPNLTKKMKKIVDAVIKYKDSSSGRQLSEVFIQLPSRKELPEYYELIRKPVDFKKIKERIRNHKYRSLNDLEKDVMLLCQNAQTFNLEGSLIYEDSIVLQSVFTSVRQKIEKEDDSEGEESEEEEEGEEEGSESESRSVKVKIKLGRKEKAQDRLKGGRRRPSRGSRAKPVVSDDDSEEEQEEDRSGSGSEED
T1 sequence (P51531 whole entry): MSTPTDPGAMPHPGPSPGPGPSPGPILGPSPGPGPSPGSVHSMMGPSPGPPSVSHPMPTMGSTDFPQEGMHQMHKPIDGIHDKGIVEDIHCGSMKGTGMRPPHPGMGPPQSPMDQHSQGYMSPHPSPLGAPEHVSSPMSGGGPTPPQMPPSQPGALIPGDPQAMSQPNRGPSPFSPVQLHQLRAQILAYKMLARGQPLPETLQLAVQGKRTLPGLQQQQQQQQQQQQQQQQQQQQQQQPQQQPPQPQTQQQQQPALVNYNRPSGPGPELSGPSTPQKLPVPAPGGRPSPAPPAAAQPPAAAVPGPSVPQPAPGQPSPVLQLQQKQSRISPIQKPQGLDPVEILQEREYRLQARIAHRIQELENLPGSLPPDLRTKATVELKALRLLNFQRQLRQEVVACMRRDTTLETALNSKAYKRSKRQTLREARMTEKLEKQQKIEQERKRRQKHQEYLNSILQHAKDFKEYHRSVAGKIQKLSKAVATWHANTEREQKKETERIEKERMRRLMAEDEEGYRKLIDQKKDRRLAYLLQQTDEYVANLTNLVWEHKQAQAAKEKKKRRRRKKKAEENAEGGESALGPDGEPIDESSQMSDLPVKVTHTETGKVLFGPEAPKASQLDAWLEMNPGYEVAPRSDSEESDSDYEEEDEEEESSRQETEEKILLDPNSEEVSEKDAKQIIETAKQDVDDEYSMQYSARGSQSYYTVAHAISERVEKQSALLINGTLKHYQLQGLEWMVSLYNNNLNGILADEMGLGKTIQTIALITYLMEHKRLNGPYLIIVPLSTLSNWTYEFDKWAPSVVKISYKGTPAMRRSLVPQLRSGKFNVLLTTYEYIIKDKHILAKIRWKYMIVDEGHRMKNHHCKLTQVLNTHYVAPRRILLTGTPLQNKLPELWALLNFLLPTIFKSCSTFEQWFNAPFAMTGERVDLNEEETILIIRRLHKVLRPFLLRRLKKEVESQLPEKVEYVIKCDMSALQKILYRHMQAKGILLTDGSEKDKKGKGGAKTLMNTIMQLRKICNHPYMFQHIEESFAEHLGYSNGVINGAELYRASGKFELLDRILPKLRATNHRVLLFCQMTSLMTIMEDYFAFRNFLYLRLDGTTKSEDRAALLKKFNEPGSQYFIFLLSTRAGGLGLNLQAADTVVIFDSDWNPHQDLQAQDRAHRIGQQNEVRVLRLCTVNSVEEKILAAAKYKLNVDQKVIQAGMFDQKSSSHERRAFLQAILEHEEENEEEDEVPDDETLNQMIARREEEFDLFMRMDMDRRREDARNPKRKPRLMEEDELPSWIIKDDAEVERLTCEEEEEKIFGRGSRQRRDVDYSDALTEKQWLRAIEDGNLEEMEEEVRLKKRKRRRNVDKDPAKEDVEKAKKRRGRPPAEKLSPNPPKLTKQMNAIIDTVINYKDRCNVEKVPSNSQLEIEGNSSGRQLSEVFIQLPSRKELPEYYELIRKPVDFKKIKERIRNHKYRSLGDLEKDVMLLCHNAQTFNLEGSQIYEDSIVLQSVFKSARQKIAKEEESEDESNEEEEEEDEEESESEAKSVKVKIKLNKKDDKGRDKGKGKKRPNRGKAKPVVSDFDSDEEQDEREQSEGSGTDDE

Compound | DC50 (SMARCA2 [1]) [nM] | DC50 (SMARCA4) [nM] | Dmax (SMARCA4) [%] | Dmax (SMARCA2 [2]) [%] | DC50 (SMARCA2 [2]) [nM]
Cn1c(=O)n(C2CCC(=O)NC2=O)c2ccc(C3CC4(C3)CC(N3CCC(c5cnc(N6C7CCC6CN(c6cc(-c8ccccc8O)nnc6N)C7)nc5)CC3)C4)cc21 (single isomer, unassigned) [I-536 (P2), 3-(5-(6-(4-(2-(3-(3-amino-6-(2-hydroxyphenyl)pyridazin-4-yl)-3,8-diazabicyclo[3.2.1]octan-8-yl)pyrimidin-5-yl)piperidin-1-yl)spiro[3.3]heptan-2-yl)-3-methyl-2-oxo-2,3-dihydro-1H-benzo[d]imidazol-1-yl)piperidine-2,6-dione] | < 100 | < 100 |  |  | 
Cn1c(=O)n(C2CCC(=O)NC2=O)c2ccc(C3CC4(C3)CC(N3CCC(c5cnc(N6C7CCC6CN(c6cc(-c8ccccc8O)nnc6N)C7)nc5)CC3)C4)cc21 (single isomer, unassigned) [I-536 (P3), 3-(5-(6-(4-(2-(3-(3-amino-6-(2-hydroxyphenyl)pyridazin-4-yl)-3,8-diazabicyclo[3.2.1]octan-8-yl)pyrimidin-5-yl)piperidin-1-yl)spiro[3.3]heptan-2-yl)-3-methyl-2-oxo-2,3-dihydro-1H-benzo[d]imidazol-1-yl)piperidine-2,6-dione] | < 100 | < 100 |  |  | 
CN1C(=O)CCC(n2c(=O)n(C)c3cc(CCCN4CCC(c5cnc(N6C7CCC6CN(c6cc(-c8ccccc8O)nnc6N)C7)nc5)CC4)ccc32)C1=O (stereo not drawn) [I-297] |  |  | < 50 | < 50 | > 1000
CN(CCCC#Cc1cnc(N2C3CCC2CN(c2cc(-c4ccccc4O)nnc2N)C3)nc1)Cc1ccc2c(c1)n(C)c(=O)n2C1CCC(=O)NC1=O (stereo not drawn) [I-298] |  | < 100 | > 90 | > 90 | < 100
CN(CCCc1cnc(N2C3CCC2CN(c2cc(-c4ccccc4O)nnc2N)C3)nc1)Cc1cccc2c1n(C)c(=O)n2C1CCC(=O)NC1=O (stereo not drawn) [I-299] |  | < 100 | > 90 | > 90 | < 100
Cn1c(=O)n(C2CCC(=O)NC2=O)c2cccc(C#CCN3CCCC(c4cnc(N5C6CCC5CN(c5cc(-c7ccccc7O)nnc5N)C6)nc4)C3)c21 (stereo not drawn) [I-300] |  | < 100 | 70 to 90 | > 90 | < 100
Cn1c(=O)n(C2CCC(=O)NC2=O)c2ccc(CCCCCCCCCNC(=O)c3cccc(C#Cc4cc(NC(=O)Nc5ccnc(Cl)c5)ccn4)c3)cc21 (stereo not drawn) [I-301, 3-[2-[4-[(2-chloro-4-pyridyl)carbamoylamino]-2-pyridyl]ethynyl]-N-[9-[1-(2,6-dioxo-3-piperidyl)-3-methyl-2-oxo-benzimidazol-5-yl]nonyl]benzamide] |  | 100 to 500 | < 50 | < 50 | 100 to 500
Cc1ncsc1-c1ccc(CNC(=O)[C@@H]2C[C@@H](O)CN2C(=O)[C@@H](NC(=O)CN2CCC(c3nccc(N4C5CCC4CN(c4cc(-c6ccccc6O)nnc4N)C5)n3)CC2)C(C)(C)C)cc1 [I-450] |  | 100 to 500 | 50 to 70 | < 50 | 100 to 500
Cc1ncsc1-c1ccc(CNC(=O)[C@@H]2C[C@@H](O)CN2C(=O)[C@@H](NC(=O)CN2CCC(c3cnc(N4CCN(c5cc(-c6ccccc6O)nnc5N)CC4)nc3)CC2)C(C)(C)C)cc1 [I-451] |  | 100 to 500 | 70 to 90 | > 90 | 100 to 500
Cc1ncsc1-c1ccc(CNC(=O)[C@@H]2C[C@@H](O)CN2C(=O)[C@@H](NC(=O)CN2CCCC(n3cc(-c4cc(-c5ccccc5O)nnc4N)cn3)C2)C(C)(C)C)cc1 (stereo partly drawn) [I-452] |  | 100 to 500 | < 50 | < 50 | > 1000
Cc1ncsc1-c1ccc(CNC(=O)[C@@H]2C[C@@H](O)CN2C(=O)[C@@H](NC(=O)CCCCCN2CCCC(n3cc(-c4cc(-c5ccccc5O)nnc4N)cn3)C2)C(C)(C)C)cc1 (stereo partly drawn) [I-456] |  | 100 to 500 | < 50 | < 50 | > 1000
